{"source": "patent US10076539B2", "about": "(priority 2016, dated 2018)", "key": {"[1]": {"details": "cited from earlier work; for solubility: 37° C."}, "gout attack": {"tested_on": "gout attack", "excerpt": "2. Preparation of Embrocation • Take KOH16.8 g, dissolve in 1 liters of distilled water, and get a concentration of 0.3 mol/L.\nThey dripped a cotton swab into the embrocation (0.1 mol/L) prepared by themself and embrocated on the attack position."}, "blood uric acid [2]": {"tested_on": "blood uric acid", "details": "applicant", "description": "On December 3, they took a footbath in 45° C. soaking solution (0.01 mol/L) for an hour, and then went to test at Chaohu Hospital of Anhui Medical University."}, "blood uric acid [3]": {"tested_on": "blood uric acid", "details": "applicant", "description": "2. Preparation of Oral Liquid • Take KOH0.12 g, dissolve in 1 liters of distilled water, and get a concentration of 0.0021 mol/L. Take orally for 50 ml per time and one time per day.\nSo they began to take oral use tests from January 2016. […] The oral concentration (mol/L) they had tried includes 0.001, 0.0018, 0.0021, 0.0025, 0.003, 0.005 and 0.008 in turn.", "remark": "listed apart in the source"}, "gout": {"tested_on": "gout", "description": "The solution can be also heated to 40-48° C. and then used for footbath. For acute gout attack, if the attack position is easy to soak, such as ankles, toe joints, hands and wrist joints, the solution can also be used to soak such positions. The solution should be embrocated on the attack positions if such positions are not convenient to soak, such as knee joints and elbow joints. […] Drip a cotton swab in the embrocation and embrocate on the attack positions, or drip a dressing in the embrocation and apply on the attack positions. It is very inconvenient to undress when applying topical drug in cold season, then oral drug is an option. […] Have 50 ml of the liquid before meals. For the sufferers of high blood uric acid and acute, intermittent and chronic gout, the embrocation, soak solution and oral liquid can be used separately or concurrently at the same time."}, "high uric acid and gout": {"tested_on": "high uric acid and gout", "details": "water injection for intravenous drip, high uric acid and gout sufferers"}, "[4]": {"details": "cited from earlier work"}, "[5]": {"details": "December 3, one footbath in 45° C. soaking solution (0.01 mol/L) for an hour"}, "[6]": {"details": "baseline, day after eating two chicken livers"}}}
{"smiles": "O=c1[nH]c(=O)c2[nH]c([O-])nc2[nH]1.[Na+]", "note": "[sodium urate]", "values": [{"measurement": "solubility", "setting": "[1]", "result": 8.0, "unit": "mM"}]}
{"smiles": "O=c1[nH]c(=O)c2[nH]c(=O)[nH]c2[nH]1", "note": "[potassium urate]", "values": [{"measurement": "solubility compared with uric acid and sodium urate", "setting": "[1]", "result": "much higher than uric acid and sodium urate"}]}
{"smiles": "[K+].[OH-]", "note": "[KOH, potassium hydroxide]", "values": [{"measurement": "time until pain was relieved and foot could touch the ground", "setting": "gout attack; embrocation 0.1 mol/L on first metatarsophalangeal joint, applicant, May 2008", "result": "about ten"}, {"measurement": "time until gout symptoms disappeared", "setting": "gout attack; embrocation 0.1 mol/L, 2-3 times per day, applicant", "result": "three"}, {"measurement": "effect on swelling and soreness (forerunner of gout), prevention of onset", "setting": "gout attack; embrocation, molar concentration of KOH solution 0.1, 0.2, 0.3 and 0.4, 2009-2013, applicant", "result": "all were effective"}, {"measurement": "blood uric acid after footbath", "setting": "blood uric acid [2]; [5]", "result": 486, "unit": "μmol/LL"}, {"measurement": "urine uric acid after footbath", "setting": "blood uric acid [2]; [5]", "result": 6.59, "unit": "mmol/L"}, {"measurement": "blood uric acid after footbath once a day", "setting": "blood uric acid [2]; December 10, footbath once a day since December 3, soaking solution 0.01 mol/L", "result": 389, "unit": "µmol/L"}, {"measurement": "drop of blood uric acid", "setting": "blood uric acid [2]; December 10 versus 495 μmol/L before footbath", "result": 21, "unit": "%"}, {"measurement": "blood uric acid before footbath", "setting": "blood uric acid [2]; [6]", "result": 495, "unit": "µmol/L"}, {"measurement": "urine uric acid before footbath", "setting": "blood uric acid [2]; [6]", "result": 6.3, "unit": "mmol/L"}, {"measurement": "blood uric acid after oral use", "setting": "blood uric acid [3]; April 2016, after oral KOH solution 23 times since January 2016", "result": 351, "unit": "µmol/L"}, {"measurement": "discomfort / taste of oral liquid", "setting": "blood uric acid [3]; oral liquid 0.001 mol/L-0.005 mol/L", "result": "brought no discomfort to the body"}, {"measurement": "consecutive days of application until gout symptoms completely disappear", "setting": "gout; footbath, oral or embrocation", "result": "2 to 3", "unit": "days"}, {"measurement": "time to relief of symptoms (pain and swelling during gout attack)", "setting": "gout; footbath, oral or embrocation", "result": "ten"}, {"measurement": "corrosion of the skin", "setting": "gout; low concentration KOH", "result": "will not corrode the skin"}, {"measurement": "side effects", "setting": "gout; low concentration KOH", "result": "no side effects"}, {"measurement": "anticipated effect of intravenous drip", "setting": "high uric acid and gout", "result": "immediate effect"}]}
{"smiles": "O=c1[nH]c(=O)c2[nH]c(=O)[nH]c2[nH]1", "note": "[uric acid, 2,6,8-Trihydroxypurine]", "values": [{"measurement": "dissociation constant (PKa), the 3rd nitrogen dissociation", "setting": "[4]", "result": 10.3}, {"measurement": "solubility", "setting": "[1]", "result": 0.5, "unit": "mM"}]}
